From ChEMBL document CHEMBL1152417, “The identification and optimisation of novel and selective diamide neuropeptide Y Y2 receptor antagonists” (Bioorg Med Chem Lett, 2009)

Each compound was assayed on Brain (assay: Drug level in rat brain assessed as tissue binding).
Type: ADME, tissue-based

Going from `O=C(Cc1ccccc1)Nc1ccc(N2CCN(C(=O)c3ccccc3)CC2)c(Cl)c1` to `CC(C)(C(=O)Nc1ccc(N2CCN(C(=O)c3ccccc3)CC2)c(Cl)c1)c1ccccc1`, the “Brain tissue binding (percent bound)” value rises from 99% to 99.5%.

With `O=C(Nc1ccc(N2CCN(C(=O)c3ccccc3)CC2)c(Cl)c1)C(c1ccccc1)c1ccccn1` (racemic) the “Brain tissue binding (percent bound)” value was 99.7%.
